In US20240300932A1, “N-PHENYLIMINE DERIVATIVE AND PREPARATION METHOD AND USE THEREOF” (Guizhou University, priority 2023, published 2024):

Experiments:
Test in all cases: Post-emergence herbicidal activity test (stem and leaf spray, pot culture)
Type in all cases: in vivo
Details in all cases: 3 weeks after spraying
Abutilon theophrasti = tested on: Abutilon theophrasti
Procedure, shortened: (§1)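 Activity is given as a 0–5 grade of fresh weight growth control, scored three weeks after a single stem-and-leaf spray. Weeds in farmland loam were treated at the 2- to 3-leaf stage at 10, 5 and 2.5 g/mu, with methyl oleate added as synergist.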

Amaranthus retroflexus = tested on: Amaranthus retroflexus
Procedure, shortened: as §1

Echinochloa crusgalli = tested on: Echinochloa crusgalli
Procedure, shortened: as §1

Portulaca oleracea = tested on: Portulaca oleracea
Procedure, shortened: as §1

Setaria viridis = tested on: Setaria viridis
Procedure, shortened: as §1

Trifoliumre pensL. = tested on: Trifoliumre pensL.
Procedure, shortened: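 Rates of 10, 5 and 2.5 g/mu were applied in a single spray-tower treatment to 2–3-leaf plants, thinned to 10 per pot. Formulation: acetone solution, Tween 80, 1.5 L/ha methyl oleate synergist. Weed response assessed after 3 further greenhouse weeks; mean of three experiments.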

With `O=C1C2=C(CCCC2)C(=O)N1c1cc(OCc2nc(-c3ccc(OC(F)(F)F)cc3)no2)c(Cl)cc1F` [Compound A20] the “Post-emergence herbicidal activity, A. theophrasti (grade)” value (Abutilon theophrasti; dosage 2.5 g/mu) was 5 (Grade 5: the growth control rate is greater than or equal to 85%), the “Post-emergence herbicidal activity, A. theophrasti (grade)” value (Abutilon theophrasti; dosage 5 g/mu) was 5 (Grade 5: the growth control rate is greater than or equal to 85%) and the “Post-emergence herbicidal activity, A. theophrasti (grade)” value (Abutilon theophrasti; dosage 10 g/mu) was 5 (Grade 5: the growth control rate is greater than or equal to 85%). For the same molecule, the “Post-emergence herbicidal activity, A. retroflexus (grade)” value (Amaranthus retroflexus; dosage 2.5 g/mu) was 5 (Grade 5: the growth control rate is greater than or equal to 85%), the “Post-emergence herbicidal activity, A. retroflexus (grade)” value (Amaranthus retroflexus; dosage 5 g/mu) was 5 (Grade 5: the growth control rate is greater than or equal to 85%) and the “Post-emergence herbicidal activity, A. retroflexus (grade)” value (Amaranthus retroflexus; dosage 10 g/mu) was 5 (Grade 5: the growth control rate is greater than or equal to 85%). For the same molecule, the “Post-emergence herbicidal activity, E. crusgalli (grade)” value (Echinochloa crusgalli; dosage 2.5 g/mu) was 1 (Grade 1: the growth control rate is greater than or equal to 5% and less than 20%), the “Post-emergence herbicidal activity, E. crusgalli (grade)” value (Echinochloa crusgalli; dosage 5 g/mu) was 2 (Grade 2: the growth control rate is greater than or equal to 20% and less than 40%) and the “Post-emergence herbicidal activity, E. crusgalli (grade)” value (Echinochloa crusgalli; dosage 10 g/mu) was 3 (Grade 3: the growth control rate is greater than or equal to 40% and less than 60%). For the same molecule, the “Post-emergence herbicidal activity, P. oleracea (grade)” value (Portulaca oleracea; dosage 2.5 g/mu) was 4 (Grade 4: the growth control rate is greater than or equal to 60% and less than 85%), the “Post-emergence herbicidal activity, P. oleracea (grade)” value (Portulaca oleracea; dosage 5 g/mu) was 5 (Grade 5: the growth control rate is greater than or equal to 85%) and the “Post-emergence herbicidal activity, P. oleracea (grade)” value (Portulaca oleracea; dosage 10 g/mu) was 5 (Grade 5: the growth control rate is greater than or equal to 85%). The “Post-emergence herbicidal activity, S. viridis (grade)” value (Setaria viridis; dosage 2.5 g/mu) was 2 (Grade 2: the growth control rate is greater than or equal to 20% and less than 40%), the “Post-emergence herbicidal activity, S. viridis (grade)” value (Setaria viridis; dosage 5 g/mu) was 3 (Grade 3: the growth control rate is greater than or equal to 40% and less than 60%) and the “Post-emergence herbicidal activity, S. viridis (grade)” value (Setaria viridis; dosage 10 g/mu) was 4 (Grade 4: the growth control rate is greater than or equal to 60% and less than 85%). For the same molecule, the “Post-emergence herbicidal activity, Trifoliumre pensL. (grade)” value (Trifoliumre pensL.; dosage 2.5 g/mu) was 4 (Grade 4: the growth control rate is greater than or equal to 60% and less than 85%), the “Post-emergence herbicidal activity, Trifoliumre pensL. (grade)” value (Trifoliumre pensL.; dosage 5 g/mu) was 5 (Grade 5: the growth control rate is greater than or equal to 85%) and the “Post-emergence herbicidal activity, Trifoliumre pensL. (grade)” value (Trifoliumre pensL.; dosage 10 g/mu) was 5 (Grade 5: the growth control rate is greater than or equal to 85%).

With `O=C1C2=C(CCCC2)C(=O)N1c1cc(OCc2nc(-c3cc(F)ccc3Cl)no2)c(Cl)cc1F` [Compound A21] the “Post-emergence herbicidal activity, A. theophrasti (grade)” value (Abutilon theophrasti; dosage 2.5 g/mu) was 5 (Grade 5: the growth control rate is greater than or equal to 85%), the “Post-emergence herbicidal activity, A. theophrasti (grade)” value (Abutilon theophrasti; dosage 5 g/mu) was 5 (Grade 5: the growth control rate is greater than or equal to 85%) and the “Post-emergence herbicidal activity, A. theophrasti (grade)” value (Abutilon theophrasti; dosage 10 g/mu) was 5 (Grade 5: the growth control rate is greater than or equal to 85%). For the same molecule, the “Post-emergence herbicidal activity, A. retroflexus (grade)” value (Amaranthus retroflexus; dosage 2.5 g/mu) was 5 (Grade 5: the growth control rate is greater than or equal to 85%), the “Post-emergence herbicidal activity, A. retroflexus (grade)” value (Amaranthus retroflexus; dosage 5 g/mu) was 5 (Grade 5: the growth control rate is greater than or equal to 85%) and the “Post-emergence herbicidal activity, A. retroflexus (grade)” value (Amaranthus retroflexus; dosage 10 g/mu) was 5 (Grade 5: the growth control rate is greater than or equal to 85%). The “Post-emergence herbicidal activity, E. crusgalli (grade)” value (Echinochloa crusgalli; dosage 2.5 g/mu) was 1 (Grade 1: the growth control rate is greater than or equal to 5% and less than 20%), the “Post-emergence herbicidal activity, E. crusgalli (grade)” value (Echinochloa crusgalli; dosage 5 g/mu) was 2 (Grade 2: the growth control rate is greater than or equal to 20% and less than 40%) and the “Post-emergence herbicidal activity, E. crusgalli (grade)” value (Echinochloa crusgalli; dosage 10 g/mu) was 3 (Grade 3: the growth control rate is greater than or equal to 40% and less than 60%). For the same molecule, the “Post-emergence herbicidal activity, P. oleracea (grade)” value (Portulaca oleracea; dosage 2.5 g/mu) was 4 (Grade 4: the growth control rate is greater than or equal to 60% and less than 85%), the “Post-emergence herbicidal activity, P. oleracea (grade)” value (Portulaca oleracea; dosage 5 g/mu) was 5 (Grade 5: the growth control rate is greater than or equal to 85%) and the “Post-emergence herbicidal activity, P. oleracea (grade)” value (Portulaca oleracea; dosage 10 g/mu) was 5 (Grade 5: the growth control rate is greater than or equal to 85%). The “Post-emergence herbicidal activity, S. viridis (grade)” value (Setaria viridis; dosage 2.5 g/mu) was 2 (Grade 2: the growth control rate is greater than or equal to 20% and less than 40%), the “Post-emergence herbicidal activity, S. viridis (grade)” value (Setaria viridis; dosage 5 g/mu) was 3 (Grade 3: the growth control rate is greater than or equal to 40% and less than 60%) and the “Post-emergence herbicidal activity, S. viridis (grade)” value (Setaria viridis; dosage 10 g/mu) was 4 (Grade 4: the growth control rate is greater than or equal to 60% and less than 85%). The “Post-emergence herbicidal activity, Trifoliumre pensL. (grade)” value (Trifoliumre pensL.; dosage 2.5 g/mu) was 4 (Grade 4: the growth control rate is greater than or equal to 60% and less than 85%), the “Post-emergence herbicidal activity, Trifoliumre pensL. (grade)” value (Trifoliumre pensL.; dosage 5 g/mu) was 5 (Grade 5: the growth control rate is greater than or equal to 85%) and the “Post-emergence herbicidal activity, Trifoliumre pensL. (grade)” value (Trifoliumre pensL.; dosage 10 g/mu) was 5 (Grade 5: the growth control rate is greater than or equal to 85%).

With `O=C1C2=C(CCCC2)C(=O)N1c1cc(OCc2nc(-c3ccco3)no2)c(Cl)cc1F` [Compound A22] the “Post-emergence herbicidal activity, A. theophrasti (grade)” value (Abutilon theophrasti; dosage 2.5 g/mu) was 5 (Grade 5: the growth control rate is greater than or equal to 85%), the “Post-emergence herbicidal activity, A. theophrasti (grade)” value (Abutilon theophrasti; dosage 5 g/mu) was 5 (Grade 5: the growth control rate is greater than or equal to 85%) and the “Post-emergence herbicidal activity, A. theophrasti (grade)” value (Abutilon theophrasti; dosage 10 g/mu) was 5 (Grade 5: the growth control rate is greater than or equal to 85%). The “Post-emergence herbicidal activity, A. retroflexus (grade)” value (Amaranthus retroflexus; dosage 2.5 g/mu) was 5 (Grade 5: the growth control rate is greater than or equal to 85%), the “Post-emergence herbicidal activity, A. retroflexus (grade)” value (Amaranthus retroflexus; dosage 5 g/mu) was 5 (Grade 5: the growth control rate is greater than or equal to 85%) and the “Post-emergence herbicidal activity, A. retroflexus (grade)” value (Amaranthus retroflexus; dosage 10 g/mu) was 5 (Grade 5: the growth control rate is greater than or equal to 85%). For the same molecule, the “Post-emergence herbicidal activity, E. crusgalli (grade)” value (Echinochloa crusgalli; dosage 2.5 g/mu) was 1 (Grade 1: the growth control rate is greater than or equal to 5% and less than 20%), the “Post-emergence herbicidal activity, E. crusgalli (grade)” value (Echinochloa crusgalli; dosage 5 g/mu) was 2 (Grade 2: the growth control rate is greater than or equal to 20% and less than 40%) and the “Post-emergence herbicidal activity, E. crusgalli (grade)” value (Echinochloa crusgalli; dosage 10 g/mu) was 3 (Grade 3: the growth control rate is greater than or equal to 40% and less than 60%). For the same molecule, the “Post-emergence herbicidal activity, P. oleracea (grade)” value (Portulaca oleracea; dosage 2.5 g/mu) was 4 (Grade 4: the growth control rate is greater than or equal to 60% and less than 85%), the “Post-emergence herbicidal activity, P. oleracea (grade)” value (Portulaca oleracea; dosage 5 g/mu) was 5 (Grade 5: the growth control rate is greater than or equal to 85%) and the “Post-emergence herbicidal activity, P. oleracea (grade)” value (Portulaca oleracea; dosage 10 g/mu) was 5 (Grade 5: the growth control rate is greater than or equal to 85%). For the same molecule, the “Post-emergence herbicidal activity, S. viridis (grade)” value (Setaria viridis; dosage 2.5 g/mu) was 2 (Grade 2: the growth control rate is greater than or equal to 20% and less than 40%), the “Post-emergence herbicidal activity, S. viridis (grade)” value (Setaria viridis; dosage 5 g/mu) was 3 (Grade 3: the growth control rate is greater than or equal to 40% and less than 60%) and the “Post-emergence herbicidal activity, S. viridis (grade)” value (Setaria viridis; dosage 10 g/mu) was 4 (Grade 4: the growth control rate is greater than or equal to 60% and less than 85%). The “Post-emergence herbicidal activity, Trifoliumre pensL. (grade)” value (Trifoliumre pensL.; dosage 2.5 g/mu) was 4 (Grade 4: the growth control rate is greater than or equal to 60% and less than 85%), the “Post-emergence herbicidal activity, Trifoliumre pensL. (grade)” value (Trifoliumre pensL.; dosage 5 g/mu) was 5 (Grade 5: the growth control rate is greater than or equal to 85%) and the “Post-emergence herbicidal activity, Trifoliumre pensL. (grade)” value (Trifoliumre pensL.; dosage 10 g/mu) was 5 (Grade 5: the growth control rate is greater than or equal to 85%).
